Assay results: ChEMBL document CHEMBL6177983, “PSMA-Guided PROTAC Degraders for Tumor-Specific Protein Degradation in Prostate Cancer” (J Med Chem, 2025)
Each block holds one molecule with its values, some of them ahead of it. Active and inactive are the calls of the source. No cut-off for these calls is given here.

Tests used:
[1] = target: T1, von Hippel-Lindau disease tumor suppressor/Androgen receptor (Homo sapiens, UniProt P10275+P40337); assay: In vivo PROTAC activity at AR/VHL in BALB/c mouse xenografted with human LNCaP cells assessed as reduction in AR level in tumor at 1 mmol/L, iv measured at 48 hrs by Western blot analysis; format: functional, organism-based
[2] = target: T1, von Hippel-Lindau disease tumor suppressor/Androgen receptor; assay: In vivo PROTAC activity at AR/VHL in BALB/c mouse xenografted with human LNCaP cells assessed as reduction in AR level in tumor at 1 mmol/L, iv measured at 72 hrs by Western blot analysis; format: functional, organism-based
LNCaP [3] = assay: animal or person; settings: Mus musculus, po, 504 h, read-out: TGI
Description: Antitumor activity against human LNCaP cells xenografted in BALB/c mouse assessed as tumor growth inhibition at 10 mg/kg, po administered every day for 21 days

Mus musculus = assay: In vivo PROTAC activity at BRD4/VHL in BALB/c mouse xenografted with human LNCaP cells assessed as reduction in AR level in tumor at 1 mmol/L, iv measured for 3 days by Western blot analysis; format: functional, organism-based; settings: time 3.0 day
VCaP = assay: Cytotoxicity against human VCaP cells assessed as cell viability incubated for 72 hrs by CCK-8 assay; format: functional, cell-based
HEK-293T = assay: Cytotoxicity against HEK293T cells assessed as cell viability incubated for 72 hrs by CCK-8 assay; format: toxicity, cell-based; settings: human
J82 = assay: Cytotoxicity against human J82 cells assessed as cell viability incubated for 72 hrs by CCK-8 assay; format: functional, cell-based
LNCaP [4] = assay: Antitumor activity against human LNCaP cells xenografted in BALB/c mouse assessed as tumor growth inhibition at 1.02 mmol/L, iv administered every day for 21 days; format: functional; settings: 504 h, time 21 day, read-out: TGI
DU-145 = assay: Cytotoxicity against human DU-145 cells assessed as cell viability incubated for 72 hrs by CCK-8 assay; format: functional, cell-based
LNCaP [5] = assay: Cytotoxicity against human LNCaP cells assessed as cell viability incubated for 72 hrs by CCK-8 assay; format: functional, cell-based
LNCaP [6] = assay: Antitumor activity against human LNCaP cells xenografted in BALB/c mouse assessed as tumor growth inhibition at 0.51 mmol/L, iv administered every day for 21 days; format: functional; settings: 504 h, time 21 day, read-out: TGI
CWR22R = assay: Cytotoxicity against human 22Rv1 cells assessed as cell viability incubated for 72 hrs by CCK-8 assay; format: functional, cell-based

T1 sequence (P10275 whole entry, looked up): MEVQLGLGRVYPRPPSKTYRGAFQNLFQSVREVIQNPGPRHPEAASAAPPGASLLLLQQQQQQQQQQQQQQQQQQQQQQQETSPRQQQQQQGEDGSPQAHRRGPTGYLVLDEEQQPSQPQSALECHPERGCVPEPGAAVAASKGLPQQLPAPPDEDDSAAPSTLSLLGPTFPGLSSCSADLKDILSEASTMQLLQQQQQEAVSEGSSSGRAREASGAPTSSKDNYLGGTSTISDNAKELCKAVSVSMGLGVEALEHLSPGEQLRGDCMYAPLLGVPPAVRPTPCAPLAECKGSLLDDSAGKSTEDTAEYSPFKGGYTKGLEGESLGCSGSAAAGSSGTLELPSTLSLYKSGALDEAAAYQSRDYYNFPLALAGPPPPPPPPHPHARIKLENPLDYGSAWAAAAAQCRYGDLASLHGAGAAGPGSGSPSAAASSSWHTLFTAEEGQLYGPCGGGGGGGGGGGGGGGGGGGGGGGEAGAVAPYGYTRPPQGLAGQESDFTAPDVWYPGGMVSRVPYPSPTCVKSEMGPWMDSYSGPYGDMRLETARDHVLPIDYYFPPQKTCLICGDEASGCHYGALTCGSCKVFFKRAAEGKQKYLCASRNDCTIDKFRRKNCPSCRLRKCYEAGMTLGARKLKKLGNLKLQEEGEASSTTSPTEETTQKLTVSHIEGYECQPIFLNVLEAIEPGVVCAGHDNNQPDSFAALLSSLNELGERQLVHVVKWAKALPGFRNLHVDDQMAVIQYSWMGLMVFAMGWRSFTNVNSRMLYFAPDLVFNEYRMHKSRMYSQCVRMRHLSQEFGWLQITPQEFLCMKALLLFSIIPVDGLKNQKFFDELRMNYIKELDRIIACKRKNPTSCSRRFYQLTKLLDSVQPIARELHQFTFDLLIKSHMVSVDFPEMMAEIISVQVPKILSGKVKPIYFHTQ
T1 sequence (P40337 whole entry, looked up): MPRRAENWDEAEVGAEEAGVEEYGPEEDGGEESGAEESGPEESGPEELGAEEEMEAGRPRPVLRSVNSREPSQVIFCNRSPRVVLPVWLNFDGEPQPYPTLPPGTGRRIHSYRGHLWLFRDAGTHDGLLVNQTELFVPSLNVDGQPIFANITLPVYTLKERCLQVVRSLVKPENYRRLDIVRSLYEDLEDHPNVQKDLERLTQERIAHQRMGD

Activity [1]: Active
Activity [2]: Active
Structure (SMILES): Cc1ncsc1-c1ccc(CNC(=O)[C@@H]2C[C@@H](O)CN2C(=O)[C@@H](NC(=O)CCCCCCCCCNC(=O)c2ccc(C(=O)N[C@H]3C(C)(C)[C@H](Oc4ccc(C#N)c(Cl)c4)C3(C)C)cc2)C(C)(C)C)cc1

Structure (SMILES): CNC(=O)c1ccc(N2C(=S)N(c3ccc(C#N)c(C(F)(F)F)c3)C(=O)C2(C)C)cc1F [ENZALUTAMIDE]
inhibition in vivo at 10 mg/kg (LNCaP [3]): 59.5%

Structure (SMILES): Cc1ncsc1-c1ccc([C@H](C)NC(=O)[C@@H]2C[C@@H](O)CN2C(=O)[C@@H](NC(=O)COCCCOCCNC(=O)C[C@@H]2N=C(c3ccc(Cl)cc3)c3c(sc(C)c3C)-n3c(C)nnc32)C(C)(C)C)cc1
Activity (Mus musculus): Active
Activity (VCaP): Active
Activity (HEK-293T): Toxic
Activity (J82): Active
inhibition in vivo at 1020 µM (LNCaP [4]): 65.2%
Activity (DU-145): Active
Activity (LNCaP [5]): Active
inhibition in vivo at 510 µM (LNCaP [6]): 56.2%
Activity (CWR22R): Active
